Assay results taken from the NIST ThermoML archive (doi:10.1021/je050440b).
± gives the expanded uncertainty stated by the source.

Assay: activity coefficient (dimensionless); of the first substance listed, at infinite dilution; xn = mol fraction of the nth substance listed
Settings: Liquid, Chromatography, x1 = 0

## C1=CCCC=C1 [1,3-cyclohexadiene] + CCCC[N+](C)(C)C.O=S(=O)([N-]S(=O)(=O)C(F)(F)F)C(F)(F)F
305.95 K
  activity coefficient: 3.59 ± 0.24
322.55 K
  activity coefficient: 3.37 ± 0.23
333.25 K
  activity coefficient: 3.18 ± 0.22
343.65 K
  activity coefficient: 3.03 ± 0.21
354.15 K
  activity coefficient: 2.91 ± 0.2
364.55 K
  activity coefficient: 2.81 ± 0.19

## C1COCCO1 [1,4-dioxane] + CCCC[N+](C)(C)C.O=S(=O)([N-]S(=O)(=O)C(F)(F)F)C(F)(F)F
343.75 K
  activity coefficient: 0.74 ± 0.05
354.25 K
  activity coefficient: 0.73 ± 0.05

## C=CCCCCCCCC [1-decene] + CCCC[N+](C)(C)C.O=S(=O)([N-]S(=O)(=O)C(F)(F)F)C(F)(F)F
306.15 K
  activity coefficient: 50.4 ± 3.5
311.95 K
  activity coefficient: 47.8 ± 3.3
322.55 K
  activity coefficient: 43.1 ± 3
333.25 K
  activity coefficient: 39 ± 2.7
343.65 K
  activity coefficient: 35.2 ± 2.4
354.05 K
  activity coefficient: 32.1 ± 2.2

## C=CCCCCCCCCCC [1-dodecene] + CCCC[N+](C)(C)C.O=S(=O)([N-]S(=O)(=O)C(F)(F)F)C(F)(F)F
333.25 K
  activity coefficient: 76.8 ± 5.3
343.75 K
  activity coefficient: 68.9 ± 4.7
354.05 K
  activity coefficient: 61.4 ± 4.2
364.55 K
  activity coefficient: 54.6 ± 3.7
371.95 K
  activity coefficient: 49 ± 3.4

## C=CCCCCC [1-heptene] + CCCC[N+](C)(C)C.O=S(=O)([N-]S(=O)(=O)C(F)(F)F)C(F)(F)F
306.75 K
  activity coefficient: 15.6 ± 1.1
311.95 K
  activity coefficient: 14.9 ± 1
322.55 K
  activity coefficient: 13.9 ± 0.95
333.25 K
  activity coefficient: 12.9 ± 0.88
343.65 K
  activity coefficient: 12 ± 0.82
354.05 K
  activity coefficient: 11.3 ± 0.77

## C=CCCCCCCC [1-nonene] + CCCC[N+](C)(C)C.O=S(=O)([N-]S(=O)(=O)C(F)(F)F)C(F)(F)F
306.65 K
  activity coefficient: 34.1 ± 2.3
311.98 K
  activity coefficient: 32.6 ± 2.2
322.55 K
  activity coefficient: 29.9 ± 2
333.25 K
  activity coefficient: 26.7 ± 1.8
343.65 K
  activity coefficient: 24.5 ± 1.7
354.05 K
  activity coefficient: 22.3 ± 1.5
364.55 K
  activity coefficient: 20.9 ± 1.4

## C=CCCC [1-pentene] + CCCC[N+](C)(C)C.O=S(=O)([N-]S(=O)(=O)C(F)(F)F)C(F)(F)F
301.85 K
  activity coefficient: 6.06 ± 0.41
312.35 K
  activity coefficient: 5.79 ± 0.39

## C=CCCCCCCCCC [1-undecene] + CCCC[N+](C)(C)C.O=S(=O)([N-]S(=O)(=O)C(F)(F)F)C(F)(F)F
322.55 K
  activity coefficient: 62.7 ± 4.3
333.25 K
  activity coefficient: 56.1 ± 3.8
343.65 K
  activity coefficient: 50.7 ± 3.5
354.05 K
  activity coefficient: 45.8 ± 3.1
364.55 K
  activity coefficient: 42.6 ± 2.9
374.95 K
  activity coefficient: 37.6 ± 2.6

## CC(C)CO [2-methyl-1-propanol] + CCCC[N+](C)(C)C.O=S(=O)([N-]S(=O)(=O)C(F)(F)F)C(F)(F)F
302.55 K
  activity coefficient: 3.98 ± 0.27
312.15 K
  activity coefficient: 3.52 ± 0.24
322.85 K
  activity coefficient: 3.13 ± 0.21
333.35 K
  activity coefficient: 2.72 ± 0.19
343.65 K
  activity coefficient: 2.46 ± 0.17
354.05 K
  activity coefficient: 2.23 ± 0.15

## CCC(C)(C)O [2-methylbutan-2-ol] + CCCC[N+](C)(C)C.O=S(=O)([N-]S(=O)(=O)C(F)(F)F)C(F)(F)F
302.55 K
  activity coefficient: 2.53 ± 0.17
312.15 K
  activity coefficient: 2.32 ± 0.16
333.25 K
  activity coefficient: 1.94 ± 0.13
343.65 K
  activity coefficient: 1.8 ± 0.12
354.05 K
  activity coefficient: 1.67 ± 0.11

## CC(C)(C)O [2-methylpropan-2-ol] + CCCC[N+](C)(C)C.O=S(=O)([N-]S(=O)(=O)C(F)(F)F)C(F)(F)F
302.55 K
  activity coefficient: 2.24 ± 0.15
312.15 K
  activity coefficient: 2.01 ± 0.14
322.85 K
  activity coefficient: 1.79 ± 0.12
333.25 K
  activity coefficient: 1.61 ± 0.11
343.65 K
  activity coefficient: 1.47 ± 0.1
354.05 K
  activity coefficient: 1.34 ± 0.09

## CN1CCCC1=O [N-methylpyrrolidone] + CCCC[N+](C)(C)C.O=S(=O)([N-]S(=O)(=O)C(F)(F)F)C(F)(F)F
312.35 K
  activity coefficient: 112 ± 7.7
322.75 K
  activity coefficient: 81.3 ± 5.6
333.35 K
  activity coefficient: 60.4 ± 4.1
343.75 K
  activity coefficient: 46.1 ± 3.1
354.15 K
  activity coefficient: 36.5 ± 2.5
364.75 K
  activity coefficient: 28 ± 1.9
375.15 K
  activity coefficient: 22.4 ± 1.5

## CC(C)=O [acetone] + CCCC[N+](C)(C)C.O=S(=O)([N-]S(=O)(=O)C(F)(F)F)C(F)(F)F
301.85 K
  activity coefficient: 0.42 ± 0.04
312.45 K
  activity coefficient: 0.42 ± 0.04
343.75 K
  activity coefficient: 0.4 ± 0.03

## CC#N [acetonitrile] + CCCC[N+](C)(C)C.O=S(=O)([N-]S(=O)(=O)C(F)(F)F)C(F)(F)F
301.75 K
  activity coefficient: 0.52 ± 0.04
312.45 K
  activity coefficient: 0.5 ± 0.04
322.95 K
  activity coefficient: 0.49 ± 0.04
333.35 K
  activity coefficient: 0.47 ± 0.04
343.75 K
  activity coefficient: 0.46 ± 0.04

## c1ccccc1 [benzene] + CCCC[N+](C)(C)C.O=S(=O)([N-]S(=O)(=O)C(F)(F)F)C(F)(F)F
322.75 K
  activity coefficient: 1.3 ± 0.08
333.35 K
  activity coefficient: 1.26 ± 0.08
343.55 K
  activity coefficient: 1.26 ± 0.08
354.05 K
  activity coefficient: 1.22 ± 0.08
364.45 K
  activity coefficient: 1.2 ± 0.08

## CCCCO [butan-1-ol] + CCCC[N+](C)(C)C.O=S(=O)([N-]S(=O)(=O)C(F)(F)F)C(F)(F)F
302.55 K
  activity coefficient: 3.62 ± 0.25
312.15 K
  activity coefficient: 3.22 ± 0.22
322.85 K
  activity coefficient: 2.83 ± 0.19
333.35 K
  activity coefficient: 2.49 ± 0.17
343.65 K
  activity coefficient: 2.24 ± 0.15

## CCC(C)O (stereo not given) [butan-2-ol] + CCCC[N+](C)(C)C.O=S(=O)([N-]S(=O)(=O)C(F)(F)F)C(F)(F)F
333.15 K
  activity coefficient: 2.06 ± 0.14
343.65 K
  activity coefficient: 1.87 ± 0.13
354.05 K
  activity coefficient: 1.7 ± 0.11
364.45 K
  activity coefficient: 1.53 ± 0.1
374.95 K
  activity coefficient: 1.38 ± 0.09

## CCCC=O [butanal] + CCCC[N+](C)(C)C.O=S(=O)([N-]S(=O)(=O)C(F)(F)F)C(F)(F)F
301.75 K
  activity coefficient: 0.84 ± 0.05
312.25 K
  activity coefficient: 0.8 ± 0.05
322.75 K
  activity coefficient: 0.79 ± 0.05
343.55 K
  activity coefficient: 0.77 ± 0.05
354.15 K
  activity coefficient: 0.76 ± 0.05

## CCCCc1ccccc1 [butylbenzene] + CCCC[N+](C)(C)C.O=S(=O)([N-]S(=O)(=O)C(F)(F)F)C(F)(F)F
333.25 K
  activity coefficient: 5.77 ± 0.39
343.65 K
  activity coefficient: 5.62 ± 0.38
354.05 K
  activity coefficient: 5.43 ± 0.37
364.45 K
  activity coefficient: 5.31 ± 0.36
374.95 K
  activity coefficient: 5.16 ± 0.35

## C1CCCCC1 [cyclohexane] + CCCC[N+](C)(C)C.O=S(=O)([N-]S(=O)(=O)C(F)(F)F)C(F)(F)F
300.95 K
  activity coefficient: 4.15 ± 0.28
312.25 K
  activity coefficient: 3.84 ± 0.26
322.85 K
  activity coefficient: 3.6 ± 0.25
333.35 K
  activity coefficient: 3.37 ± 0.23

## OC1CCCCC1 [cyclohexanol] + CCCC[N+](C)(C)C.O=S(=O)([N-]S(=O)(=O)C(F)(F)F)C(F)(F)F
343.65 K
  activity coefficient: 3.52 ± 0.24
354.05 K
  activity coefficient: 2.89 ± 0.2
364.45 K
  activity coefficient: 2.54 ± 0.17
373.95 K
  activity coefficient: 2.27 ± 0.15
385.55 K
  activity coefficient: 1.95 ± 0.13

## C1=CCCCC1 [cyclohexene] + CCCC[N+](C)(C)C.O=S(=O)([N-]S(=O)(=O)C(F)(F)F)C(F)(F)F
312.05 K
  activity coefficient: 6.87 ± 0.47
322.55 K
  activity coefficient: 6.45 ± 0.44
333.25 K
  activity coefficient: 5.94 ± 0.4
343.65 K
  activity coefficient: 5.5 ± 0.37
354.15 K
  activity coefficient: 5.31 ± 0.36

## CCCCCCCCCC [decane] + CCCC[N+](C)(C)C.O=S(=O)([N-]S(=O)(=O)C(F)(F)F)C(F)(F)F
302.15 K
  activity coefficient: 97.8 ± 6.7
312.15 K
  activity coefficient: 87.5 ± 6
322.65 K
  activity coefficient: 77.5 ± 5.3
333.25 K
  activity coefficient: 67.2 ± 4.6
343.65 K
  activity coefficient: 59.9 ± 4.1
354.05 K
  activity coefficient: 53.7 ± 3.7

## CN(C)C=O [dimethylformamide] + CCCC[N+](C)(C)C.O=S(=O)([N-]S(=O)(=O)C(F)(F)F)C(F)(F)F
364.55 K
  activity coefficient: 0.29 ± 0.03
375.15 K
  activity coefficient: 0.29 ± 0.03
385.55 K
  activity coefficient: 0.3 ± 0.03
396.15 K
  activity coefficient: 0.3 ± 0.03

## CCCCCCCCCCCC [dodecane] + CCCC[N+](C)(C)C.O=S(=O)([N-]S(=O)(=O)C(F)(F)F)C(F)(F)F
333.25 K
  activity coefficient: 128 ± 8.8
343.65 K
  activity coefficient: 110 ± 7.5
354.05 K
  activity coefficient: 92.3 ± 6.3

## CCO [ethanol] + CCCC[N+](C)(C)C.O=S(=O)([N-]S(=O)(=O)C(F)(F)F)C(F)(F)F
312.25 K
  activity coefficient: 1.94 ± 0.13
322.85 K
  activity coefficient: 1.73 ± 0.12
333.25 K
  activity coefficient: 1.57 ± 0.1
343.65 K
  activity coefficient: 1.41 ± 0.09

## CCc1ccccc1 [ethylbenzene] + CCCC[N+](C)(C)C.O=S(=O)([N-]S(=O)(=O)C(F)(F)F)C(F)(F)F
322.85 K
  activity coefficient: 2.79 ± 0.19
333.25 K
  activity coefficient: 2.76 ± 0.19
343.75 K
  activity coefficient: 2.65 ± 0.18
354.15 K
  activity coefficient: 2.6 ± 0.18

## CCCCCCCO [heptan-1-ol] + CCCC[N+](C)(C)C.O=S(=O)([N-]S(=O)(=O)C(F)(F)F)C(F)(F)F
354.05 K
  activity coefficient: 3.47 ± 0.24
364.63 K
  activity coefficient: 3.11 ± 0.21
375.05 K
  activity coefficient: 2.81 ± 0.19
386.6 K
  activity coefficient: 2.58 ± 0.18

## CCCCCCC=O [heptanal] + CCCC[N+](C)(C)C.O=S(=O)([N-]S(=O)(=O)C(F)(F)F)C(F)(F)F
354.15 K
  activity coefficient: 1.84 ± 0.12
364.65 K
  activity coefficient: 1.73 ± 0.12
374.95 K
  activity coefficient: 1.6 ± 0.11
385.45 K
  activity coefficient: 1.48 ± 0.1
395.95 K
  activity coefficient: 1.36 ± 0.09

## CCCCCCC [heptane] + CCCC[N+](C)(C)C.O=S(=O)([N-]S(=O)(=O)C(F)(F)F)C(F)(F)F
301.62 K
  activity coefficient: 30.2 ± 2.1
312.15 K
  activity coefficient: 27.7 ± 1.9
322.75 K
  activity coefficient: 25.6 ± 1.8
333.25 K
  activity coefficient: 23.4 ± 1.6

## C=CCCCC [hex-1-ene] + CCCC[N+](C)(C)C.O=S(=O)([N-]S(=O)(=O)C(F)(F)F)C(F)(F)F
305.85 K
  activity coefficient: 10.2 ± 0.7
312.35 K
  activity coefficient: 9.81 ± 0.67
322.55 K
  activity coefficient: 9.46 ± 0.65
343.65 K
  activity coefficient: 8.63 ± 0.59
364.55 K
  activity coefficient: 7.93 ± 0.54
